Laboratory results: BigSolDB 2.1

N#CN=C(N)N
solubility (mole fraction)
Settings	283.15 K	288.15 K	293.15 K	298.15 K	303.15 K	308.15 K	313.15 K	318.15 K	323.15 K
in acetone	0.00634	0.00658	0.00677	0.00754	0.00836	0.0102	0.0112	0.0133	0.0154
in acetonitrile	0.00219	0.00226	0.00245	0.00273	0.00296	0.00324	0.00364	0.00447	0.00528
in ethanol	0.00786	0.00861	0.00936	0.0102	0.0109	0.0125	0.0142	0.017	0.0206
